Measured values from US8357635B2, “Microbiocides” (Syngenta Crop Protection LLC, priority 2009, dated 2013).
Where “and” joins values, the source holds several entries; their conditions need not be identical. Identical values can stand only once.

Assays:
[1] = system: Puccinia recondita; experiment: Protective action against Puccinia recondita (brown rust) on wheat leaf segments; type: in vivo; settings: foliar, 192 h, 0.02% active ingredient sprayed on wheat leaf segments, assessed 8 days after inoculation, read-out: preventive fungicidal activity (inhibition)
Method: (§1) Wheat leaf segments were placed on agar in multiwell plates (24-well format) and sprayed with test solutions (0.02% active ingredient). After drying, the leaf disks were inoculated with a spore suspension of the fungus. After appropriate incubation the activity of a compound was assessed 8 days after inoculation as preventive fungicidal activity.

[2] = system: Erysiphe graminis f.sp. tritici; experiment: Action against Erysiphe graminis f.sp. tritici (wheat powdery mildew), wheat leaf segments; type: in vivo; settings: Blumeria graminis, foliar, 168 h; 0.02% active ingredient sprayed on wheat leaf segments, assessed 7 days after inoculation; read-out: preventive fungicidal activity (inhibition)
Method: as §1, with “7” for “8”

[3] = system: Septoria tritici; experiment: Action against Septoria tritici - fungal growth assay; type: cell-based; settings: Zymoseptoria tritici; 0.002% active ingredient, PDB broth, 24° C., photometric after 72 hrs
Method: (§2) Conidia of the fungus from cryogenic storage were directly mixed into nutrient broth (PDB potato dextrose broth). After placing a (DMSO) solution of the test compounds (0.002% active ingredient) into a microtiter plate (96-well format) the nutrient broth containing the fungal spores was added. The test plates were incubated at 24° C. and the inhibition of growth was determined photometrically after 72 hrs. The activity of a compound was expressed as fungal growth inhibition (0=no growth inhibition, ratings of 80% to 99% mean good to very good inhibition, 100%=complete inhibition).

[4] = system: Pyrenophora teres; experiment: Action against Pyrenophora teres (net blotch) on barley leaf segments; type: in vivo; settings: foliar, 96 h, 0.02% active ingredient sprayed on barley leaf segments, assessed 4 days after inoculation, read-out: preventive fungicidal activity (inhibition)
Method: as §1, with “Barley” for “Wheat”, “4” for “8”

[5] = system: Mycosphaerella arachidis (Cercospora arachidicola); experiment: Action against Mycosphaerella arachidis (early leaf spot of groundnut) - fungal growth assay; type: cell-based; settings: 0.002% active ingredient, PDB broth, 24° C., photometric after 6-7 days
Method: as §2, with “measured” for “determined”, “6-7 days.” for “72 hrs.”

[6] = system: Monographella nivalis (Fusarium nivale, Microdochium nivale); experiment: Action against Monographella nivalis (snow mould) - fungal growth assay; type: cell-based; settings: 0.002% active ingredient, PDB broth, 24° C., photometric after 72 hrs
Method: as §2, with “DMSO-solution” for “(DMSO) solution”, “measured” for “determined”, “hrs” for “hrs. The activity of a compound was expressed as fungal growth inhibition”

[7] = system: Botrytis cinerea; experiment: Action against Botrytis cinerea - fungal growth assay; type: cell-based; settings: 0.002% active ingredient, PDB broth, 24° C., photometric after 3-4 days
Method: as §2, with “storage was” for “storage were”, “was measured” for “was determined”, “after 3-4 days.” for “after 72 hrs.”

[8] = system: Puccinia recondita; experiment: Curative action against Puccinia recondita (brown rust) on wheat leaf segments; type: in vivo; settings: foliar, 0.02% active ingredient sprayed one day after inoculation on wheat leaf segments, assessed 8 days after inoculation, read-out: curative fungicidal activity (inhibition)
Method: Wheat leaf segments were placed on agar in multiwell plates (24-well format) and inoculated with a spore suspension of the fungus. One day after inoculation the leaf segments were sprayed with test solutions (0.02% active ingredient). After appropriate incubation the activity of a compound was assessed 8 days after inoculation as curative fungicidal activity.

[9] = system: Rhizoctonia solani; experiment: Action against Rhizoctonia solani - fungal growth assay; type: cell-based; settings: 0.002% active ingredient, PDB broth, 24° C., photometric after 3-4 days
Method: as §2, with “Mycelial fragments of a newly grown liquid culture” for “Conidia”, “fungus” for “fungus from cryogenic storage”, “measured” for “determined”, “3-4 days.” for “72 hrs.”

| melting point | SMILES | inhibition at 0.02 % strength [1] [%] | inhibition at 0.02 % strength [2] [%] | inhibition at 0.002 % strength [3] [%] | inhibition at 0.02 % strength [4] [%] | inhibition at 0.002 % strength [5] [%] | inhibition at 0.002 % strength [6] [%] | inhibition at 0.002 % strength [7] [%] | inhibition at 0.02 % strength [8] [%] | inhibition at 0.002 % strength [9] [%] |
| --- | --- | --- | --- | --- | --- | --- | --- | --- | --- | --- |
| 110 to 113 °C and 110 to 130 °C | CON(C(=O)c1cn(C)nc1C(F)F)C(C)[C@@H]1C[C@H]1c1c(Cl)sc(Cl)c1Cl (relative stereo) [Compound 1.063, trans 3-Difluoromethyl-1-methyl-1H-pyrazole-4-carboxylic acid methoxy-{1-[2-(2,4,5-trichloro-thiophen-3-yl)-cyclopropyl]-ethyl}-amide] |  |  |  |  |  |  |  |  |  |
| 133 to 135 °C | CON(C(=O)c1cn(C)nc1C(F)F)C(C)C1CC1c1ccc(Cl)cc1Cl (single isomer, unassigned) [Compound 1.018A, trans-3-difluoromethyl-1-methyl-1H-pyrazole-4-carboxylic acid {1-[2-(2,4-dichlorophenyl)-cyclopropyl]-ethyl}-methoxy-amide] |  |  |  |  |  |  |  |  |  |
| 142 to 144 °C | CON(C(=O)c1cn(C)nc1C(F)F)C(C)C1CC1c1ccc(Cl)cc1Cl (single isomer, unassigned) [Compound 1.018B, trans-3-difluoromethyl-1-methyl-1H-pyrazole-4-carboxylic acid {1-[2-(2,4-dichlorophenyl)-cyclopropyl]-ethyl}-methoxy-amide] |  |  |  |  |  |  |  |  |  |
|  | CON(C(=O)c1cn(C)nc1C(F)F)C(C)C1CC1c1ccccc1Cl (stereo not drawn) [Compound 1.011A, trans 3-difluoromethyl-1-methyl-1H-pyrazole-4-carboxylic acid {1-[2-(2-chloro-phenyl)-cyclopropyl]-ethyl}-methoxy-amide] | ≥ 80 | ≥ 80 | ≥ 80 | ≥ 80 | ≥ 80 | ≥ 80 | ≥ 80 |  |  |
|  | CON(C(=O)c1cn(C)nc1C(F)F)C(C)C1CC1c1ccc(Cl)cc1Cl (stereo not drawn) [Compound 1.018A, trans-3-difluoromethyl-1-methyl-1H-pyrazole-4-carboxylic acid {1-[2-(2,4-dichlorophenyl)-cyclopropyl]-ethyl}-methoxy-amide] | ≥ 80 | ≥ 80 | ≥ 80 | ≥ 80 | ≥ 80 | ≥ 80 | ≥ 80 |  |  |
|  | CON(C(=O)c1cn(C)nc1C(F)F)C(C)C1CC1c1ccc(Cl)cc1Cl (stereo not drawn) [Compound 1.018B, trans-3-difluoromethyl-1-methyl-1H-pyrazole-4-carboxylic acid {1-[2-(2,4-dichlorophenyl)-cyclopropyl]-ethyl}-methoxy-amide] |  |  |  |  |  |  |  | ≥ 80 |  |
|  | CON(C(=O)c1cn(C)nc1C(F)F)C(C)C1CC1c1c(F)cccc1Cl (stereo not drawn) [Compound 1.027, trans 3-difluoromethyl-1-methyl-1H-pyrazole-4-carboxylic acid{1-[2-(2-chloro-6-fluoro-phenyl)-cyclopropyl]-ethyl}-methoxy-amide] | ≥ 80 | ≥ 80 | ≥ 80 | ≥ 80 | ≥ 80 | ≥ 80 | ≥ 80 | ≥ 80 |  |
|  | CON(C(=O)c1cn(C)nc1C(F)F)C(C)C1CC1c1c(Cl)cccc1Cl (stereo not drawn) [Compound 1.028, trans-3-difluoromethyl-1-methyl-1H-pyrazole-4-carboxylic acid {1-[2-(2,6-dichlorophenyl)-cyclopropyl]-ethyl}-methoxy-amide] | ≥ 80 | ≥ 80 | ≥ 80 | ≥ 80 | ≥ 80 | ≥ 80 | ≥ 80 | ≥ 80 | ≥ 80 |
|  | CON(C(=O)c1cn(C)nc1C(F)F)C(C)C1CC1c1c(Cl)cc(Cl)cc1Cl (stereo not drawn) [Compound 1.034, trans-3-difluoromethyl-1-methyl-1H-pyrazole-4-carboxylic acid {1-[2-(2,4,6-trichlorophenyl)-cyclopropyl]-ethyl}-methoxy-amide] | ≥ 80 | ≥ 80 | ≥ 80 | ≥ 80 | ≥ 80 | ≥ 80 | ≥ 80 | ≥ 80 | ≥ 80 |
